Results taken from patent US20230058557A1, “TRANSPLANTED CELL PROTECTION VIA INHIBITION OF POLYMORPHONUCLEAR CELLS” (The Regents of the University of California, priority 2020, published 2023).
“Also recorded” adds a separate entry of the source. Where two headings read alike, the source gives them in different places.

Columns and labels:
human PMNs = type: cell-based
Procedure: A comprehensive human immune assay was established using the XCelligence in vitro impedance system that obtains real-time kinetics of target cell killing. (ACEA BioSciences, San Diego, Calif., Catalog No. 00380601040). Wild-type (wt) and engineered iPSCs were differentiated into endothelial cells for this assay. […] Some experimental groups were treated with IL-2 (1 ng/ml), which is a central cytokine involved in allograft rejection. The assays were run for a duration of 90 h which is the maximum time period iECs can be cultured in this system before the monolayer breaks down spontaneously.
The immune system not only distinguishes between “self” and “non-self”, but also reacts to “danger” signals: released by autologous cells in distress. Matzinger, Ann. Rev. Immunol. 12:991-1045 (1994), incorporated by reference herein in its entirety. Intracellular components, released by damaged cells, can act as adjuvants and boost immune activation to alarm the immune system of cell death. Because apoptosis activates programmed cell death pathways aimed at digesting intracellular proteins, apoptotic cells are considered weak releasers of danger signals. […] For our in vitro assays, 20,000 target cells were sonicated to disrupt their cell membrane and release DAMPs and the cell debris was added to prior grown and confluent target iEC layer in Xcelligence assays.
Thus, for DAMP-activated XCelligence assays, iECs were plated and in addition to the immune effector cells, 20,000 sonicated target cells were added at the same time. […]
Ligands for CD200R and PIRLα are CD200 and CD99, respectively. Recombinant human CD200 Fc chimera proteins (R&D Systems, Minneapolis, Minn., Catalog no. 2724-CD-050) and CD99 Fc chimera proteins (R&D Systems, Minneapolis, Minn., Catalog no. 3968-CD-050) engage these receptors. These Fc chimera proteins were added to the assays at 10 μg/ml. There is no known ligand for SIRL-1 but there is an activating monoclonal SIRL-1 antibody to trigger downstream inhibitory signaling (Steevels T A., Eur J. Immunol. 43(5):1297-308 (2013)). The human PMNs were activated via DAMPs or IL-2 and the killing of human wt and HIP iECs was assessed (FIG. 8).
BAY 85-8501 was used at 1 nM or 1 μM concentrations. The effector PMNs were stimulated with sonicated cells or IL-2.
Activating receptors include the family of toll-like receptors (TLRs) that are activated by a wide range of ligands including DAMPs. PMN activation pathways were inhibited by TAK-242 (MedChem Express, Monmouth Junction, N.J., Catalog No. HY-11109, 10 μM for in vitro Xcelligence assays), a small-molecule inhibitor of TLR-4-mediated signaling. Wild-type and HIP cells were used on the XCelligence platform using PMNs as effector cells (FIG. 13). Necrotic cells or IL-2 were used as PMN stimulators.

[1] = in mice; cited from earlier work
[2] = 10 μM, DAMP- or IL-2 activated PMNs
[3] = PMNs activated via DAMPs (necrotic/sonicated cells), Fc chimera proteins 10 μg/ml
[4] = PMNs stimulated with IL-2, Fc chimera proteins 10 μg/ml

For `CCOC(=O)C1=CCCC[C@H]1S(=O)(=O)Nc1ccc(F)cc1Cl` [TAK-242], the “PMN killing of wt and HIP iECs, efficacy by stimulator” value (human PMNs; 10 μM, DAMPs compared with IL-2) was “stronger”, the “PMN killing of wt and HIP iECs” value (human PMNs; 10 μM, IL-2) was “still markedly reduced” and the “PMN killing of wt and HIP iECs” value (human PMNs; 10 μM, necrotic cells (DAMPs) or IL-2 as PMN stimulators) was “diminished PMN killing”.

For “A1AT: Alpha-1 antitrypsin, Neutrophil Elastase inhibitor (Sigma-Aldrich A9024)”, the “Half-life of A1AT” value [1] is listed as “approx. 4.5 days” and the “PMN killing of wt and HIP iECs” value (human PMNs; 30 μM recombinant A1AT) is listed as “minorly effective; also recorded: some minor activity against PMN killing”.

With `CC1=C(C#N)[C@@H](c2ccc(C#N)cc2S(C)(=O)=O)N(C)C(=O)N1c1cccc(C(F)(F)F)c1` [BAY 85-8501] the “PMN killing of wt or HIP target cells” value (human PMNs; 1 nM, compared with 1 μM) was “less effective”, the “PMN killing of wt or HIP target cells” value (human PMNs; 1 μM, PMNs activated via DAMPs from sonicated cells) was “fully prevented” and the “PMN killing of wt or HIP target cells” value (human PMNs; 1 μM, in the presence of IL-2) was “further delayed the target cell killing”.

For `COc1cc(C(C)=O)ccc1O` [Apocynin], the “PMN killing of wt and HIP iECs” value (human PMNs; [2]) was “diminished”.

In the case of `COc1cc2c(c(OC)c1OC)-c1ccc(OC)c(=O)cc1[C@@H](NC(C)=O)CC2` [colchicine], the “PMN killing of wt and HIP iECs” value (human PMNs; 1 μM monotherapy, DAMP or IL-2 activated PMNs) is reported as “mild inhibitor; also recorded: only marginal efficacy”.

For `CC[C@H](Nc1ncnc2[nH]cnc12)c1nc2cccc(F)c2c(=O)n1-c1ccccc1` [Idelalisib], the “PMN killing of wt and HIP iECs” value (human PMNs; [2]) was “mildly diminished PMN killing”.

B1: CD200 Fc chimera: Recombinant human CD200 Fc chimera protein (R&D Systems 2724-CD-050), ligand for CD200R (protein)
chain: QVQVVTQDEREQLYTPASLKCSLQNAQEALIVTWQKKKAVSPENMVTFSENHGVVIQPAYKDKINITQLGLQNSTITFWNITLEDEGCYMCLFNTFGFGKISGTACLTVYVQPIVSLHYKFSEDHLNITCSATARPAPMVFWKVPRSGIENSTVTLSHPNGTTSVTSILHIKDPKNQVGKEVICQVLHLGTVTDFKQTVNKG
modifications: left off: a dimerising Fc or GST
notes: Recombinant human CD200 Fc chimera protein (R&D Systems 2724-CD-050), ligand for CD200R
For B1, the “PMN killing of wt and HIP iECs” value (human PMNs; [3]) was “prevented PMN killing”, the “PMN killing of wt and HIP iECs” value (human PMNs; [4]) was “somewhat delayed” and the “PMN killing of wt and HIP iECs” value (human PMNs; PMNs stimulated with IL-2, Fc chimera proteins 10 μg/ml, listed as recombinant CD200) was “delayed but not prevented”.

B2: CD99 Fc chimera: Recombinant CD99 Fc chimera protein (R&D Systems 3968-CD-050), ligand for PIRLα (protein)
chain: DGGFDLSDALPDNENKKPTAIPKKPSAGDDFDLGDAVVDGENDDPRPPNPPKPMPNPNPNHPSSSGSFSDADLADGVSGGEGKGGSDGGGSHRKEGEEAD
modifications: left off: a dimerising Fc or GST
notes: Recombinant CD99 Fc chimera protein (R&D Systems 3968-CD-050), ligand for PIRLα
For B2, the “PMN killing of wt and HIP iECs” value (human PMNs; [3]) was “prevented PMN killing”, the “PMN killing of wt and HIP iECs” value (human PMNs; [4]) was “somewhat delayed” and the “PMN killing of wt and HIP iECs” value (human PMNs; PMNs stimulated with IL-2, Fc chimera proteins 10 μg/ml, listed as CD99) was “delayed but not prevented”.
